From US20260373156A1, “CANCER TREATMENTS USING MTA-COOPERATIVE PRMT5 INHIBITORS” (AMGEN INC., priority 2022, published 2026)

Tests used:
MIAPACA2 cells = assay: CellTiter-Glo viability and CalcuSyn synergy, PRMT5 inhibitor + sotorasib, 6 days (Example 15); format: cell-based; design: key: CI<1 synergy, CI=1 additivity, CI>1 antagonism
Description: Raw luminescent values were converted to fraction affected (Fa) with the following equation: […]
Synergy analysis was performed using the CalcuSyn software to determine CI scores based on the drug concentrations used and corresponding Fa values. Results are shown in Table 24 below. *CI Values (Calcusyn): CI<1 indicates synergy. C=1 indicates additivity. C>1 indicates antagonism.

HCC1395 cells = assay: CellTiter-Glo viability and CalcuSyn synergy, PRMT5 inhibitor + olaparib, 6 days; conditions: for Combination Fa: 8640 min
MIAPACA2T2 cells = assay: CellTiter-Glo viability and CalcuSyn synergy, PRMT5 inhibitor + trametinib, 6 days; conditions: for Combination Fa: 8640 min
[1] = Compound B 1.4579 μM + olaparib 0.103573 μM
[2] = Compound B 1.4579 μM + olaparib 0.176074 μM
[3] = Compound B 1.4579 μM + olaparib 0.299326 μM
[4] = Compound B 1.4579 μM + olaparib 0.508854 μM
[5] = Compound B 1.4579 μM + olaparib 0.865052 μM
[6] = Compound B 1.4579 μM + olaparib 1.47059 μM
[7] = Compound B 1.4579 μM + olaparib 2.5 μM
[8] = Compound B 0.437381 μM + trametinib 0.00101 μM
[9] = Compound B 0.437381 μM + trametinib 0.001918 μM
[10] = Compound B 0.437381 μM + trametinib 0.003645 μM
[11] = Compound B 0.437381 μM + trametinib 0.00531 μM
[12] = Compound B 0.437381 μM + trametinib 0.006925 μM
[13] = Compound B 0.437381 μM + trametinib 0.013158 μM
[14] = Compound B 0.437381 μM + trametinib 0.025 μM

Cc1cc2cc(C(=O)N(Cc3ccc(C(F)(F)F)cn3)[C@@H](C)c3ncccn3)ccc2nc1N [Compound B]
CI score (MIAPACA2 cells; Compound B 0.230 μM + sotorasib 0.006 μM): 0.65
CI score (MIAPACA2 cells; Compound B 0.230 μM + sotorasib 0.010 μM): 0.63
CI score (MIAPACA2 cells; Compound B 0.230 μM + sotorasib 0.015 μM): 0.55
CI score (MIAPACA2 cells; Compound B 0.230 μM + sotorasib 0.024 μM): 0.51
CI score (MIAPACA2 cells; Compound B 0.230 μM + sotorasib 0.039 μM): 0.71
CI score (MIAPACA2 cells; Compound B 0.230 μM + sotorasib 0.063 μM): 0.72
CI score (MIAPACA2 cells; Compound B 0.230 μM + sotorasib 0.100 μM): 1.00
CI score (MIAPACA2 cells; Compound B 0.437 μM + sotorasib 0.006 μM): 0.55
CI score (MIAPACA2 cells; Compound B 0.437 μM + sotorasib 0.010 μM): 0.70
CI score (MIAPACA2 cells; Compound B 0.437 μM + sotorasib 0.015 μM): 0.52
CI score (MIAPACA2 cells; Compound B 0.437 μM + sotorasib 0.024 μM): 0.61
CI score (MIAPACA2 cells; Compound B 0.437 μM + sotorasib 0.039 μM): 0.65
CI score (MIAPACA2 cells; Compound B 0.437 μM + sotorasib 0.063 μM): 0.67
CI score (MIAPACA2 cells; Compound B 0.437 μM + sotorasib 0.100 μM): 1.06
CI score (MIAPACA2 cells; Compound B 0.831 μM + sotorasib 0.006 μM): 0.83
CI score (MIAPACA2 cells; Compound B 0.831 μM + sotorasib 0.010 μM): 0.85
CI score (MIAPACA2 cells; Compound B 0.831 μM + sotorasib 0.015 μM): 0.68
CI score (MIAPACA2 cells; Compound B 0.831 μM + sotorasib 0.024 μM): 0.65
CI score (MIAPACA2 cells; Compound B 0.831 μM + sotorasib 0.039 μM): 0.75
CI score (MIAPACA2 cells; Compound B 0.831 μM + sotorasib 0.063 μM): 0.89
CI score (MIAPACA2 cells; Compound B 0.831 μM + sotorasib 0.100 μM): 1.15
CI score (MIAPACA2 cells; Compound B 1.579 μM + sotorasib 0.006 μM): 1.30
CI score (MIAPACA2 cells; Compound B 1.579 μM + sotorasib 0.010 μM): 1.37
CI score (MIAPACA2 cells; Compound B 1.579 μM + sotorasib 0.015 μM): 0.95
CI score (MIAPACA2 cells; Compound B 1.579 μM + sotorasib 0.024 μM): 0.91
CI score (MIAPACA2 cells; Compound B 1.579 μM + sotorasib 0.039 μM): 0.95
CI score (MIAPACA2 cells; Compound B 1.579 μM + sotorasib 0.063 μM): 0.98
CI score (MIAPACA2 cells; Compound B 1.579 μM + sotorasib 0.100 μM): 1.25
Computed CI value (HCC1395 cells; [1]): 0.217
Combination Fa (HCC1395 cells; [1]): 0.5945
Computed CI value (HCC1395 cells; [2]): 0.278
Combination Fa (HCC1395 cells; [2]): 0.6178
Computed CI value (HCC1395 cells; [3]): 0.338
Combination Fa (HCC1395 cells; [3]): 0.6595
Computed CI value (HCC1395 cells; [4]): 0.509
Combination Fa (HCC1395 cells; [4]): 0.6756
Computed CI value (HCC1395 cells; [5]): 0.679
Combination Fa (HCC1395 cells; [5]): 0.711
Computed CI value (HCC1395 cells; [6]): 0.706
Combination Fa (HCC1395 cells; [6]): 0.7778
Computed CI value (HCC1395 cells; [7]): 0.59
Combination Fa (HCC1395 cells; [7]): 0.8539
Computed CI value (MIAPACA2T2 cells; [8]): 0.675
Combination Fa (MIAPACA2T2 cells; [8]): 0.6193
Computed CI value (MIAPACA2T2 cells; [9]): 0.555
Combination Fa (MIAPACA2T2 cells; [9]): 0.6852
Computed CI value (MIAPACA2T2 cells; [10]): 0.674
Combination Fa (MIAPACA2T2 cells; [10]): 0.7091
Computed CI value (MIAPACA2T2 cells; [11]): 0.775
Combination Fa (MIAPACA2T2 cells; [11]): 0.5757
Computed CI value (MIAPACA2T2 cells; [12]): 0.557
Combination Fa (MIAPACA2T2 cells; [12]): 0.797
Computed CI value (MIAPACA2T2 cells; [13]): 0.651
Combination Fa (MIAPACA2T2 cells; [13]): 0.8405
Computed CI value (MIAPACA2T2 cells; [14]): 1.099
Combination Fa (MIAPACA2T2 cells; [14]): 0.8474
